According to ChEMBL document CHEMBL1201862, “PubChem BioAssay data set” (2004):
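Five concentrations, 48 hours, 96-well plates. GI50 marks 50% less growth.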 The source made the active and inactive calls. Cut-off read from the data, not from the text of the source: active = GI50 up to about 1.1 µM and inactive = higher.

Experiments:
Test in all cases: inhibition of tumour cell growth, NCI panel, 48 h
DLD-1 = tested on: DLD-1
DMS-114 = tested on: DMS-114
HCC 2998 = tested on: HCC 2998
HL-60 = tested on: HL-60
HOP-18 = tested on: HOP-18
HOP-92 = tested on: HOP-92
HT-29 = tested on: HT-29
IGROV-1 = tested on: IGROV-1
NCI-H460 = tested on: NCI-H460
SK-MEL-28 = tested on: SK-MEL-28
SK-MEL-2 = tested on: SK-MEL-2
SK-MEL-5 = tested on: SK-MEL-5
SN12C = tested on: SN12C
OVCAR-3 = tested on: OVCAR-3

Measured: GI50

N/N=c1\c2ccccc2c2ccc3c4ccccc4/c(=N\N)c3c12
inactive: DLD-1 > 100 µM | DMS-114 > 100 µM | HCC 2998 > 100 µM | HL-60 > 100 µM | HOP-18 > 100 µM | HOP-92 > 100 µM | HT-29 > 100 µM | IGROV-1 > 100 µM | NCI-H460 > 100 µM | SK-MEL-28 > 100 µM | SK-MEL-2 > 100 µM | SK-MEL-5 > 100 µM | SN12C > 100 µM

CC1CCN(c2cc(-c3cc4ccccc4o3)oc(=O)c2C#N)CC1
inactive: DLD-1 > 100 µM | DMS-114 > 100 µM | HCC 2998 > 100 µM | HL-60 65.8 µM | HOP-18 > 100 µM | HOP-92 5.9 µM | HT-29 > 100 µM | IGROV-1 > 100 µM | NCI-H460 > 100 µM | SK-MEL-28 > 100 µM | SK-MEL-2 > 100 µM | SK-MEL-5 > 100 µM | SN12C > 100 µM

c1ccc(N2CCN(CCCN3CCc4c([nH]c5ccccc45)C3c3cccnc3)CC2)cc1 (stereo unspecified)
inactive: DLD-1 72.8 µM | DMS-114 > 100 µM | HCC 2998 40.4 µM | HL-60 20 µM | HOP-18 > 100 µM | HOP-92 > 100 µM | HT-29 22.9 µM | IGROV-1 > 100 µM | NCI-H460 48.3 µM | OVCAR-3 > 49.8 µM | SK-MEL-28 61.9 µM | SK-MEL-2 > 100 µM | SK-MEL-5 > 70.3 µM | SN12C > 54.6 µM

CCc1cccc(CC)c1NC1=CC(=O)C(=O)c2ccccc21
inactive: DLD-1 15.6 µM | DMS-114 12.4 µM | HCC 2998 15 µM | HL-60 > 100 µM | HOP-18 21.2 µM | HOP-92 15.1 µM | HT-29 2.06 µM | IGROV-1 15.1 µM | NCI-H460 19 µM | OVCAR-3 2.84 µM | SK-MEL-28 15.6 µM | SK-MEL-2 14.6 µM | SK-MEL-5 10 µM | SN12C 27.5 µM

CN(C)c1ccc(C=C2C(=O)OC(C)(C)OC2=O)cc1Br
inactive: DLD-1 > 100 µM | DMS-114 > 100 µM | HCC 2998 > 100 µM | HL-60 41.1 µM | HOP-18 > 100 µM | HOP-92 29.4 µM | HT-29 > 100 µM | NCI-H460 > 100 µM | OVCAR-3 > 100 µM | SK-MEL-28 > 100 µM | SK-MEL-2 > 100 µM | SK-MEL-5 > 100 µM | SN12C > 100 µM

CN1C=C(C(N)=O)Cc2ccsc21
inactive: DLD-1 > 100 µM | DMS-114 > 100 µM | HCC 2998 > 100 µM | HL-60 > 100 µM | HOP-18 > 100 µM | HOP-92 > 100 µM | HT-29 > 100 µM | IGROV-1 > 100 µM | NCI-H460 > 100 µM | OVCAR-3 > 100 µM | SK-MEL-28 > 100 µM | SK-MEL-2 > 100 µM | SK-MEL-5 > 100 µM | SN12C > 100 µM

c1ccc(C2N=C(c3ccccn3)C(c3ccccn3)=NC2c2ccccc2)cc1 (stereo unspecified)
inactive: DLD-1 > 100 µM | DMS-114 > 100 µM | HCC 2998 > 100 µM | HL-60 > 100 µM | HOP-18 84.7 µM | HOP-92 > 100 µM | HT-29 > 100 µM | IGROV-1 > 100 µM | NCI-H460 > 100 µM | OVCAR-3 > 100 µM | SK-MEL-28 > 100 µM | SK-MEL-2 > 100 µM | SK-MEL-5 > 100 µM

CCOC(=O)Nc1ccc(S(=O)(=O)OC)cc1.CCOC(=O)Nc1ccc(S(=O)(=O)OC)cc1.Cc1cn(C2CC(O)C(CO)O2)c(=O)[nH]c1=O
inactive: DLD-1 45.5 µM | DMS-114 69.7 µM | HCC 2998 > 100 µM | HL-60 91.8 µM | HOP-18 > 100 µM | HOP-92 > 100 µM | HT-29 54.8 µM | IGROV-1 > 100 µM | NCI-H460 > 100 µM | OVCAR-3 > 100 µM | SK-MEL-28 > 100 µM | SK-MEL-2 > 100 µM | SK-MEL-5 > 100 µM | SN12C > 100 µM

CC(C)(C1=NC(C(C)(C)C)CO1)C1=N[C@@H](C(C)(C)C)CO1 (stereo partly specified)
inactive: DLD-1 > 100 µM | DMS-114 > 100 µM | HCC 2998 > 100 µM | HL-60 > 100 µM | HOP-18 > 100 µM | HOP-92 > 100 µM | HT-29 > 100 µM | IGROV-1 > 100 µM | NCI-H460 > 100 µM | OVCAR-3 > 100 µM | SK-MEL-28 > 100 µM | SK-MEL-2 > 100 µM | SK-MEL-5 > 100 µM | SN12C > 100 µM

O=C1Cc2ccccc2N1c1c(Cl)cccc1Cl
inactive: DLD-1 47.9 µM | DMS-114 29.1 µM | HCC 2998 76.7 µM | HL-60 15.3 µM | HOP-18 > 100 µM | HOP-92 50.2 µM | HT-29 34.3 µM | IGROV-1 43.4 µM | NCI-H460 97.5 µM | OVCAR-3 57.1 µM | SK-MEL-28 54 µM | SK-MEL-2 28.5 µM | SK-MEL-5 32.8 µM | SN12C 89.1 µM
